Data reported in publication PMC9040621 (2021).

system: d(CCAATTGG)2 (DNA, duplex) CCAATTGG; test: differential scanning calorimetry; settings: Na+ (sodium phosphate buffer); 100 μM DNA, compound/DNA = 1; free Tm 41.73 °C

ΔTm [°C] | SMILES
13.88 | O=c1cc(-c2ccccc2)oc2cc(O)c(O)c(O)c12
12.14 | O=c1cc(-c2ccccc2)oc2cc(O)cc(O)c12
-2.07 | O=c1cc(-c2ccccc2)oc2ccccc12
